Laboratory results taken from PMC9127657 (Bioorganic & medicinal chemistry, 2021).

tested on: HIV-1 NL4–3 Nanoluc-sec virus; test: not given; type: cell-based; details: concentration that inhibits HIV-1NL4–3 nanoluc-sec infection of MT-4 cells by 50%; three days

| Compound | EC50 [µM] |
| --- | --- |
| (S)-2-((3-(2,3-dihydro-1H-pyrrolo[3,4-c]pyridine-2-carbonyl)phenyl) sulfonamido)-N-(4-methoxyphenyl)-N-methyl-3-phenylpropanamide [Compound I-10c] | > 8.76 |

same assay, conditions: tested concentration 5 μg/mL, MT-4 cells

| Compound | antiviral activity at the tested concentration |
| --- | --- |
| COc1ccc(N(C)C(=O)[C@H](Cc2ccccc2)NS(=O)(=O)CC(=O)n2ncc3ccccc32)cc1 [II-13f, (S)-2-((2-(1H-indazol-1-yl)-2-oxoethyl)sulfonamido)-N-(4-methoxyphenyl)-N-methyl-3-phenylpropeanamide] | lost their activity |
| COc1ccc(N(C)C(=O)[C@H](Cc2ccccc2)NC(=O)c2cccc(S(=O)(=O)N3CCc4cc([N+](=O)[O-])ccc43)c2)cc1 [Compound V-25f, (S)-N-(1-((4-methoxyphenyl)(methyl)amino)-1-oxo-3-phenylpropan-2-yl)-3-((5-nitroindolin-1-yl)sulfonyl)benzamide] | loss of antiviral activity |
| COc1ccc(N(C)C(=O)[C@H](Cc2ccccc2)NS(=O)(=O)CC(=O)N2CCc3cc([N+](=O)[O-])ccc32)cc1 [II-13 g, (S)-N-(4-methoxyphenyl)-N-methyl-2-((2-(5-nitroindolin-1-yl)-2-oxoethyl)sulfonamido)-3-phenylpropanamide] | lost their activity |
| COc1ccc(N(C)C(=O)[C@H](Cc2ccccc2)NC(=O)c2cccc(S(=O)(=O)N3CCc4ccccc43)c2)cc1 [Compound V-25d, (S)-3-(indolin-1-ylsulfonyl)-N-(1-((4-methoxyphenyl)(methyl)amino)-1-oxo-3-phenylpropan-2-yl)benzamide] | loss of antiviral activity |
| COc1ccc(N(C)C(=O)[C@H](Cc2ccccc2)NS(=O)(=O)CC(=O)Nc2cc(F)cc(F)c2)cc1 [II-13e, (S)-2-((2-((3,5-difluorophenyl)amino)-2-oxoethyl)sulfonamido)-N-(4-methoxyphenyl)-N-methyl-3-phenylpropanamide] | lost their activity |
| COc1ccc(N(C)C(=O)[C@H](Cc2ccccc2)NS(=O)(=O)CC(=O)N2CCc3cc(OC)ccc32)cc1 [II-13d, (S)-2-((2-(5-methoxyindolin-1-yl)-2-oxoethyl)sulfonamido)-N-(4-methoxyphenyl)-N-methyl-3-phenylpropanamide] | lost their activity |
| COc1ccc(N(C)C(=O)[C@H](Cc2ccccc2)NC(=O)c2cccc(S(=O)(=O)Nc3ccc(C(F)(F)F)cc3)c2)cc1 [Compound V-25j, (S)-N-(1-((4-methoxyphenyl)(methyl)amino)-1-oxo-3-phenylpropan-2-yl)-3-(N-(4-(trifluoromethyl)phenyl)sulfamoyl)benzamide] | loss of antiviral activity |
| COc1ccc(N(C)C(=O)[C@H](Cc2ccccc2)NS(=O)(=O)CC(=O)Nc2ccc3ncsc3c2)cc1 [II-13b, (S)-2-((2-(benzo[d]thiazol-6-ylamino)-2-oxoethyl)sulfonamido)-N-(4-methoxyphenyl)-N-methyl-3-phenylpropanamide] | lost their activity |
| COc1ccc(N(C)C(=O)[C@H](Cc2ccccc2)NC(=O)c2cccc(S(=O)(=O)N3CCc4cc(OC)ccc43)c2)cc1 [Compound V-25e, (S)-3-((5-methoxyindolin-1-yl)sulfonyl)-N-(1-((4-methoxyphenyl) (methyl)amino)-1-oxo-3-phenylpropan-2-yl)benzamide] | loss of antiviral activity |
| COc1ccc(N(C)C(=O)[C@H](Cc2ccccc2)NC(=O)c2cccc(S(=O)(=O)Nc3cc(F)cc(F)c3)c2)cc1 [V-25 h, (S)-3-(N-(3,5-difluorophenyl)sulfamoyl)-N-(1-((4-methoxyphenyl)(methyl)amino)-1-oxo-3-phenylpropan-2-yl)benzamide] | loss of antiviral activity |

tested on: MT-4 cells; test: Cytotoxicity assay in MT-4 cells; type: cell-based; details: concentration required to reduce the viability of uninfected MT-4 cells by 50%; three days

| Compound | CC50 [µM] |
| --- | --- |
| (S)-2-((3-(2,3-dihydro-1H-pyrrolo[3,4-c]pyridine-2-carbonyl)phenyl) sulfonamido)-N-(4-methoxyphenyl)-N-methyl-3-phenylpropanamide [Compound I-10c] | > 8.76 |

tested on: not listed separately; test: Cytotoxicity assay in MT-4 cells; type: cell-based; details: human, uninfected MT-4 cells

| Compound | CC50 at 3 days [µM] |
| --- | --- |
| COc1ccc(N(C)C(=O)[C@H](Cc2ccccc2)NC(=O)C(=O)Nc2ccc([N+](=O)[O-])cc2)cc1 [III-16f, (S)-N1-(1-((4-methoxyphenyl)(methyl)amino)-1-oxo-3-phenylpropan-2-yl)–N2-(4-nitrophenyl)oxalamide] | > 10.2 |
